Data published in publication PMC8008885 (Journal of Enzyme Inhibition and Medicinal Chemistry, 2021).

Test system: STHdhQ7/7 (wild type) cells
Experiment: Cell viability MTT assay
Assay type: cell-based
Conditions: 24 h, concentration range 1–100 µM
Protocol: Cell viability was quantified using MTT assay (Sigma, St. Louis, MO, M2128). In brief, cells were cultured in each well of 96-well plates with varying concentrations of compounds for 24 h. Following incubation of cells in each well with MTT (0.5 mg/ml) for 4 h, the culture supernatant was discarded. Cells were washed with PBS three times, and the insoluble formazan product dissolved in DMSO. The optical density (OD) of each culture well was measured using as ELISA reader at 570 nm. The OD570 in control cells was taken as 100% viability.
Next, we evaluated the inhibitory activity of our compound against SETDB1 enzyme by comparing with a well-known methyltransferase inhibitor […] using chemo-luminescence assay (Figure S1a).

For `C=CCOc1cccc2nc(N3CCCC3)ccc12` [APQ, 5-allyloxy-2-(pyrrolidin-1-yl)quinoline], the “cytotoxicity (cell viability, MTT)” value was “did not show any cytotoxicity”.
